# Structures can show the parent of a compound that is named as a salt.
# Legend:
# [1] = tested on: Host vs Graft Rejection in Mice; assay: Ability of test compounds to suppress host vs graft rejection in mice (popliteal lymph node weight); assay type: in vivo, mice (C3H/HeN, BALB/c stimulation cells); details: Mus musculus
# Experimental: Ability of Test Compounds to Suppress Host vs Graft Rejection in Mice
# This experiment was performed according to the method described in Transplantation, 55, No.3 (1993): 578-591. Spleens were collected from 9 to 11 week old male BALB/c mice (CLEA JAPAN Inc., CHARLES RIVER JAPAN Inc., or JAPAN SLC Inc.). The spleens were placed in a phosphate-buffered saline (PBS(−), NISSUI PHARMACEUTICAL Co., Ltd.) or in an RPMI-1640 medium (GIBCO […] Inc., or IWAKI GLASS Co., Ltd.) and were either passed through a stainless steel mesh, or gently pressed between two slide glasses and then passed through a cell strainer (70 μm, Falcon), to form a cell suspension. The suspension was then centrifuged and the supernatant was discarded. An ammonium chloride-Tris isotonic buffer was added to the suspension to lyse erythrocytes. The cells were then centrifuged and washed three times in PBS (−) or RPMI-1640 medium and were resuspended in an RPMI-1640 medium. To this suspension, mitomycin C (KYOWA HAKKO KOGYO Co., Ltd.) was added to a final concentration of 25 μg/mL and the suspension was incubated for 30 minutes at 37° C. in a 5% CO2 atmosphere. The cells were again centrifuged and washed in PBS (−) or RPMI-1640 medium and were resuspended in an RPMI-1640 medium so that the medium would contain 2.5×10^8 cells/mL. This suspension served as a “stimulation cell suspension.” Using a 27G needle along with a microsyringe (Hamilton), 20 μL (5×10^6 cells/mouse) of the stimulation cell suspension was subcutaneously injected into the right hind footpad of 7 to 9 week old male C3H/HeN mice (CLEA JAPAN Inc., CHARLES RIVER JAPAN Inc., or JAPAN SLC Inc.). A group of mice was injected with RPMI-1640 medium alone to serve as normal control. 4 days after the injection, right popliteal lymph nodes were collected and were weighed on a Mettler AT201 electronic scale (METTLER TOLEDO Co., Ltd.). Each animal was intraperitoneally administered a test compound once a day for four consecutive days starting on the day of the injection of the stimulation cells (i.e., total of 4 times). Controls were administered a vehicle that has the same composition as that used in the preparation of the test compounds.
# [2] = tested on: Delayed-type Hypersensitivity in Mice; assay: Ability of test compounds to suppress delayed-type hypersensitivity in mice (DNFB, ear thickness); assay type: in vivo, mice (BALB/c); details: dose 3 mg/kg, orally, 30 minutes before DNFB challenge; increase in ear thickness 24 hours after the challenge
# Experimental: <Experiment 2> Ability of Test Compounds to Suppress Delayed-type Hypersensitivity in Mice. […] The sensitization was done for 2 consecutive days (day 0 and day 1). On day 5, the ears of the mice were challenged with the antigen to induce delayed-type hypersensitive responses: First, the thickness of each ear was measured by the dial thickness gauge G (0.01-10 mm, OZAKI MFG Co., Ltd.). Next, a test compound was administered. 30 minutes after the administration, 10 μL of a 0.2% (v/v) DNFB solution was applied to the inner and outer surfaces of the right ear of each animal for antigen challenge. The left ear of each animal was challenged with the solvent alone. 24 hours after the challenge, the increase in the ear thickness was measured for each ear and the difference between the right and the left ears was determined for each individual. The test compound was dissolved, or suspended, in an ultra pure water and was orally administered at a dose of 0.1 mL/10 g of body weight. A control group was administered ultra pure water alone.
melting point,SMILES,inhibition at 10 mg/kg [1],inhibition at 3 mg/kg [1],Inhibition [2]
203 to 206 °C,Cl.NC(CO)(CO)C/C=C/c1ccc(Oc2cc(C(F)(F)F)cc(C(F)(F)F)c2)cc1,,,
150 to 152 °C,Cl.NC(CO)(CO)CCc1ccc(Oc2cccc(OCc3ccccc3)c2)cc1Cl,,,
194 to 196 °C,"Cl.NC(CO)(CO)CCCc1ccc(Oc2cc(C(F)(F)F)cc(C(F)(F)F)c2)cc1 [Example 147, 2-amino-2-[4-(3,5-bistrifluoromethylphenoxy)phenyl]propyl-1,3-propanediol hydrochloride]",82%,,

# Second part, the compound before the results:
SMILES,melting point,inhibition at 10 mg/kg [1],inhibition at 3 mg/kg [1],Inhibition [2]
Cl.NC(CO)(CO)CCOc1ccc(Oc2cc(C(F)(F)F)cc(C(F)(F)F)c2)cc1,151 to 155 °C,,,
Cl.NC(CO)(CO)CCCCc1ccc(Oc2cccc(OCc3ccccc3)c2)cc1Cl,95 to 97 °C,,,
"Cl.NC(CO)(CO)CCCc1ccc(Oc2cccc(OCCCc3ccccc3)c2)cc1 [Example 148, 2-amino-2-[4-(3-phenylpropyloxyphenoxy)phenyl]propyl-1,3-propanediol hydrochloride]",95 to 98 °C,,78%,
"CC(C)c1cccc(Oc2ccc(CCCC(N)(CO)CO)cc2)c1 [Example 150, 2-amino-2-[4-(3-isopropylphenoxy)phenyl]propyl-1,3-propanediol hydrochloride]",,78%,,
"Cl.NC(CO)(CO)CCCc1ccc(Oc2cccc(OCc3ccccc3)c2)cc1Cl [Example 173, 2-amino-2-[4-(3-benzyloxyphenoxy)-2-chlorophenyl]propyl-1,3-propanediol hydrochloride]",105 to 106 °C,,100%,64%

# — patent US6963012B2, “Diaryl ether derivative, addition salt thereof, and immunosuppressant” (Kyorin Pharmaceutical Co., Ltd., priority 2001, dated 2005)
